Experimental data published in PMC6063448, “Antimicrobial activity of linear lipopeptides derived from BP100 towards plant pathogens” (PLoS ONE, 2018).

Experiments:
[1] = system: defense-related genes in tomato plants; assay: Induction of defense gene expression of tomato plants (RT-qPCR); format: in vivo, tomato cv. Rio Grande; details: for BCB gene expression, fold induction / ERT3 gene expression, fold induction / GluA gene expression, fold induction / Harp gene expression, fold induction / LOX gene expression, fold induction / Osm2 gene expression, fold induction / PPO gene expression, fold induction / PR1 gene expression, fold induction / PinII gene expression, fold induction / Sub1 gene expression, fold induction / Tas14 gene expression, fold induction: tomato leaves sprayed, 24 h, peptides and flg15 125 μM, JA 2.5 mM, ASM 300 mg/L, ΔΔCt relative to actin, above 2 = overexpression; for Defense gene expression in tomato plants (genes overexpressed): treatment at 125 μM, significant overexpression (REST2009)
Method: Seeds of tomato cv. Rio Grande plants were sown in hydroponic seed plugs (rockwool), germinated and grown under controlled greenhouse conditions (25 ± 2°C, 16 h light / 15 ± 2°C, 8 h dark, and 60% RH). Two-week old seedlings (two cotyledons) were transplanted into rockwool plugs (7.5×7.5×6.5 cm, Grodan Iberica). The experimental design consisted of three replicates of three plants per treatment. After two weeks, tomato leaves were sprayed with aqueous solutions of BP100, 9 selected derivatives and flg15 at 125 μM, jasmonic acid at 2.5 mM (Sigma-Aldrich, Sant Louis, Missouri, UE), and acybenzolar-S-methyl at 300 mg/L (Syngenta, Basel, Switzerland), until the run-off point. Water-sprayed plants were used as not treated controls. Twenty-four hours after product application leaf samples were collected and processed to extract RNA for RT-qPCR assays. Plant material was ground to a fine powder in liquid nitrogen with the Tissuelyzer II system (Qiagen). Total RNA was extracted from leaves using PureLink Plant RNA Reagent (Invitrogen, Life Technologies) according to the manufacturer’s manual. The RNA was solubilized in RNAse free water and was routinely subjected to DNAse treatment (Ambion® Turbo DNA-free™, Life Technologies) to remove any contaminant DNA. In each step, the RNA was quantified using a Nanodrop N-2000 spectrophotometer, and its integrity verified by denaturing agarose gel electrophoresis. First-strand of complementary DNA (cDNA) was generated from leave RNA using reverse transcriptase (High Capacity cDNA Reverse Transcription Kit, Invitrogen) according to the manufacturer’s manual.
To test gene defense induction in the treated tomato plants, a qPCR assay was performed. Quantitative PCR was carried out in a fluorometric thermal cycler (qPCR Quant Studio 5, Applied Biosystems) by using a Mix SYBR®Green PCR Master Mix (Applied Biosystems). The total reaction volume of this PCR reaction was 20 μL and the reaction mixture was 1 μL of each primer set at the adequate concentration, 10 μL of MixSyber Green, 6 μL of distilled water and 2 μL of cDNA. Melting curve analysis was performed after amplification to verify amplification specificity. A constitutive gene (actin gene) was used as reference control, and the following genes implicated in plant defense response were analyzed: Pathogenesis-related protein-1 (PR1), Harpin (Harp), Polyphenol oxidase (PPO), Subtilisin-like protease (Sub1), Blue copper binding-protein (BCB), Osmotin (Osm2), Acidic β-1,3 endoglucanase (GluA), Lypoxigenase (LOX), Protein inhibitor II (PinII), Dehydrin (Tas14) and Ethylene response transcription factor (ERT3). […] For each gene system, the concentration of the primer pair was optimized. The primer concentration was 100 nM for all the genes except for the GluA, Harp, PR1 and actin genes which optimized concentration was 300 nM. A calibration curve was prepared by cloning the corresponding DNA in the pSpark cloning vector (Canvax, Córdoba, Spain) according to the manufacturer instructions, which was then used to transform E. coli DH5α by standard procedures. The number of plasmid copies were quantified after purification from E. coli (QIAGEN Iberia, S. L., Madrid, Spain), and appropriate dilutions were prepared to obtain the standard curve. […] Relative quantification of gene expression was done using the ΔΔCt method. Each biological repetition treatment was analyzed in duplicate. The mean of the Ct values obtained were used to estimate the fold change value of the endogenous reference gene (actin) and the target plant defense genes.

proteinase K = system: T1, proteinase K; assay: Susceptibility to protease degradation; format: in vitro ADME; details: proteinase K (isolated protease) in TRIS buffer; 50 μg/mL peptide, 1 μg/mL proteinase K, 100 mM TRIS buffer pH 7.6, 25°C, 60 min; decrease of HPLC peak area (220 nm); read-out: Digestion with proteinase K (percentage of degraded peptide)
T1 construct: purchased Sigma-Aldrich Corporation, Spain
Method: Digestion of BP100 and of 16 selected lipopeptides was carried out by treating 50 μg/mL peptide with 1 μg/mL proteinase K (Sigma-Aldrich Corporation, Spain) in 100 mM TRIS buffer, pH 7.6, at 25°C. The peptide cleavage after 60 min was determined by HPLC using a Kromasil (4.6 × 40 mm; 3 μm particle size) C18 reverse-phase column. Linear gradients of 0.1% aqueous TFA and 0.1% TFA in CH3CN were run from 0.98:0.02 to 0:1 over 12 min with UV detection at 220 nm. Digestion was estimated as the percentage of degraded lipopeptide calculated from the decrease of the HPLC peak area of the native peptide.

tobacco leaves = assay: Effect of peptide infiltration on tobacco leaves; format: in vivo; details: in contrast to melittin
Method: BP100 and the 36 lipopeptides were evaluated for their effect upon infiltration on tobacco leaves as described previously. Peptide solutions of 50, 150 and 250 μM were infiltrated (100 μL) into the mesophylls of fully expanded tobacco leaves. Infiltrations were carried out in a single leaf, and for each peptide and dose, at least three leaves randomly distributed in different plants were inoculated. Control infiltrations with water (negative control) or melittin (positive control) at the same molar concentration were performed. The appearance of symptoms on the leaves was followed for 48 h after infiltration and measured as a lesion diameter.

## CCCC(=O)NCCCC[C@H](NC(=O)[C@H](Cc1ccc(O)cc1)NC(=O)[C@H](CCCCN)NC(=O)[C@H](CC(C)C)NC(=O)[C@@H](NC(=O)[C@H](CCCCN)NC(=O)[C@H](CCCCN)NC(=O)[C@H](Cc1ccccc1)NC(=O)[C@H](CC(C)C)NC(=O)[C@H](CCCCN)NC(=O)[C@H](CCCCN)NC(C)=O)[C@@H](C)CC)C(N)=O [BP390, Ac-KKLFKKILKYK(COC3H7)-NH2]
[1]
  BCB gene expression, fold induction: 0.6
  ERT3 gene expression, fold induction: 0.7
  GluA gene expression, fold induction: 0.6
  Harp gene expression, fold induction: 0.5
  LOX gene expression, fold induction: 1.2
  Osm2 gene expression, fold induction: 3.0
  PPO gene expression, fold induction: 0.9
  PR1 gene expression, fold induction: 0.2
  PinII gene expression, fold induction: 0.2
  Sub1 gene expression, fold induction: 0.7
  Tas14 gene expression, fold induction: 1.0
  Defense gene expression in tomato plants (genes overexpressed): one gene (Osm2, Tas14 or BCB)

## CC[C@H](C)[C@H](NC(=O)[C@H](CCCCN)NC(=O)[C@H](CCCCN)NC(=O)[C@H](Cc1ccccc1)NC(=O)[C@H](CC(C)C)NC(=O)[C@H](CCCCN)NC(=O)[C@@H](N)CCCCN)C(=O)N[C@@H](CC(C)C)C(=O)N[C@@H](CCCCN)C(=O)N[C@@H](Cc1ccc(O)cc1)C(=O)N[C@@H](CC(C)C)C(N)=O [BP100, H-Lys-Lys-Leu-Phe-Lys-Lys-Ile-Leu-Lys-Tyr-Leu-NH2]
Proteinase K
  metabolised at 1 h, 50 μg/mL: 24%
[1]
  BCB gene expression, fold induction: 0.8
  ERT3 gene expression, fold induction: 1.0
  GluA gene expression, fold induction: 1.5
  Harp gene expression, fold induction: 0.5
  LOX gene expression, fold induction: 1.2
  Osm2 gene expression, fold induction: 1.0
  PPO gene expression, fold induction: 3.2
  PR1 gene expression, fold induction: 2
  PinII gene expression, fold induction: 4.9
  Sub1 gene expression, fold induction: 1.8
  Tas14 gene expression, fold induction: 1.4
  Defense gene expression in tomato plants (genes overexpressed): PPO and PinII

## CCCC(=O)NCCCC[C@H](NC(=O)[C@H](CCCCN)NC(=O)[C@H](Cc1ccccc1)NC(=O)[C@H](CC(C)C)NC(=O)[C@H](CCCCN)NC(=O)[C@H](CCCCN)NC(C)=O)C(=O)N[C@H](C(=O)N[C@@H](CC(C)C)C(=O)N[C@@H](CCCCN)C(=O)N[C@@H](Cc1ccc(O)cc1)C(=O)N[C@@H](CC(C)C)C(N)=O)[C@@H](C)CC [BP385, Ac-KKLFKK(COC3H7)ILKYL-NH2]
[1]
  BCB gene expression, fold induction: 4.2
  ERT3 gene expression, fold induction: 0.2
  GluA gene expression, fold induction: 0.7
  Harp gene expression, fold induction: 2.3
  LOX gene expression, fold induction: 1.1
  Osm2 gene expression, fold induction: 1.2
  PPO gene expression, fold induction: 1.7
  PR1 gene expression, fold induction: 3.2
  PinII gene expression, fold induction: 7.1
  Sub1 gene expression, fold induction: 1.0
  Tas14 gene expression, fold induction: 0.7
  Defense gene expression in tomato plants (genes overexpressed): one gene (Osm2, Tas14 or BCB)

## CCCCCC(=O)NCCCC[C@H](NC(=O)[C@H](CC(C)C)NC(=O)[C@H](CCCCN)NC(=O)[C@H](CCCCN)NC(C)=O)C(=O)N[C@@H](CCCCN)C(=O)N[C@@H](CCCCN)C(=O)N[C@H](C(=O)N[C@@H](CC(C)C)C(=O)N[C@@H](CCCCN)C(=O)N[C@@H](Cc1ccc(O)cc1)C(=O)N[C@@H](CC(C)C)C(N)=O)[C@@H](C)CC [BP371, Ac-KKLK(COC5H11)KKILKYL-NH2]
[1]
  BCB gene expression, fold induction: 1.0
  ERT3 gene expression, fold induction: 0.9
  GluA gene expression, fold induction: 0.5
  Harp gene expression, fold induction: 0.9
  LOX gene expression, fold induction: 1.1
  Osm2 gene expression, fold induction: 0.9
  PPO gene expression, fold induction: 0.6
  PR1 gene expression, fold induction: 0.7
  PinII gene expression, fold induction: 1.7
  Sub1 gene expression, fold induction: 0.8
  Tas14 gene expression, fold induction: 0.7

## CCCCCCCCCCCC(=O)NCCCC[C@H](NC(=O)[C@H](CC(C)C)NC(=O)[C@@H](NC(=O)[C@H](CCCCN)NC(=O)[C@H](CCCCN)NC(=O)[C@H](Cc1ccccc1)NC(=O)[C@H](CC(C)C)NC(=O)[C@H](CCCCN)NC(=O)[C@H](CCCCN)NC(C)=O)[C@@H](C)CC)C(=O)N[C@@H](Cc1ccc(O)cc1)C(=O)N[C@@H](CC(C)C)C(N)=O [BP400, Ac-KKLFKKILK(COC11H23)YL-NH2]
Tobacco leaves
  Reaction observed in the area of infiltration of tobacco leaves: not a typical necrosis
[1]
  BCB gene expression, fold induction: 0.6
  ERT3 gene expression, fold induction: 0.2
  GluA gene expression, fold induction: 0.1
  Harp gene expression, fold induction: 1.4
  LOX gene expression, fold induction: 1.1
  Osm2 gene expression, fold induction: 0.9
  PPO gene expression, fold induction: 1.4
  PR1 gene expression, fold induction: 0.1
  PinII gene expression, fold induction: 1.1
  Sub1 gene expression, fold induction: 0.5
  Tas14 gene expression, fold induction: 8.3
  Defense gene expression in tomato plants (genes overexpressed): one gene (Osm2, Tas14 or BCB)

## CCCCCC(=O)NCCCC[C@H](NC(=O)[C@H](CCCCN)NC(=O)[C@H](CCCCN)NC(=O)[C@H](Cc1ccccc1)NC(=O)[C@H](CC(C)C)NC(=O)[C@H](CCCCN)NC(=O)[C@H](CCCCN)NC(C)=O)C(=O)N[C@@H](CC(C)C)C(=O)N[C@@H](CCCCN)C(=O)N[C@@H](Cc1ccc(O)cc1)C(=O)N[C@@H](CC(C)C)C(N)=O [BP374, Ac-KKLFKKK(COC5H11)LKYL-NH2]
[1]
  BCB gene expression, fold induction: 1.0
  ERT3 gene expression, fold induction: 2.0
  GluA gene expression, fold induction: 0.5
  Harp gene expression, fold induction: 0.9
  LOX gene expression, fold induction: 1.9
  Osm2 gene expression, fold induction: 1.6
  PPO gene expression, fold induction: 0.7
  PR1 gene expression, fold induction: 0.5
  PinII gene expression, fold induction: 1.7
  Sub1 gene expression, fold induction: 0.8
  Tas14 gene expression, fold induction: 1.2
